The values that follow come from ChEMBL document CHEMBL3352405, “Design and synthesis of sulfamoyl benzoic acid analogues with subnanomolar agonist activity specific to the LPA2 receptor” (J Med Chem, 2014).

In experiment [1] the target is T1, Lysophosphatidic acid receptor 2 (Homo sapiens, UniProt Q9HBW0). Briefly: Agonist activity at human LPA2 expressed in LPA1xLPA2 double knockout mouse MEF cells by Fura-2AM dye based Ca2+ mobilization assay. The experiment is classed as functional, cell-based.
T1 sequence (Q9HBW0 whole entry): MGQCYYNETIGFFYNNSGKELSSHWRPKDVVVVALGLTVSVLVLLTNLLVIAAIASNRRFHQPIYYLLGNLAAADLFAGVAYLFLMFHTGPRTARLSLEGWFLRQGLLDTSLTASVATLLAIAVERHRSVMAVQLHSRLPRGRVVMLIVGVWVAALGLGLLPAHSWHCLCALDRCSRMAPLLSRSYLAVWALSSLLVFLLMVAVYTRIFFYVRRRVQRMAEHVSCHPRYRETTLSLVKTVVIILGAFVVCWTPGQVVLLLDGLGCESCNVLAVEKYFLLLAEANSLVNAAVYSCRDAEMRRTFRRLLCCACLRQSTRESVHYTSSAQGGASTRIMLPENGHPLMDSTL
Experiment [2] concerns the target T1, Lysophosphatidic acid receptor 2. Briefly: Agonist activity at human LPA2 expressed in LPA1xLPA2 double knockout mouse MEF cells by Fura-2AM dye based Ca2+ mobilization assay relative to LPA 18:1. The experiment is classed as functional, cell-based.
In experiment [3] the target is T2, Lysophosphatidic acid receptor 3 (Homo sapiens, UniProt Q9UBY5).
T2 sequence (Q9UBY5 whole entry): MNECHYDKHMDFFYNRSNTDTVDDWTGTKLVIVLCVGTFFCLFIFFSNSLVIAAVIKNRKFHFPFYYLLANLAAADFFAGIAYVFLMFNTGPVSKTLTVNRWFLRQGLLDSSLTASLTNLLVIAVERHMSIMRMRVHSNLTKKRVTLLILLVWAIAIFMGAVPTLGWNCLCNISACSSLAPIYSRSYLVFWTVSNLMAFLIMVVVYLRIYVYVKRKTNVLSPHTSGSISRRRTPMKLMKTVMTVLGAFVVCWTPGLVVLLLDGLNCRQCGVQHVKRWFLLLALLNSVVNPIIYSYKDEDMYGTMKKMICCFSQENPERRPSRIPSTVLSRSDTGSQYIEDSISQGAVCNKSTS
Description: Antagonist activity at human LPA3 expressed in RH7777 cells assessed as reduction in […]-induced calcium mobilization by Fura-2AM dye based Ca2+ mobilization assay.

In experiment [4] the target is Lysophosphatidic acid receptor 1 (Homo sapiens, UniProt Q92633). Description: Agonist activity at human LPA1 expressed in RH7777 cells up to 10 uM by Fura-2AM dye based Ca2+ mobilization assay. A general note: A change in cytosolic calcium serves as a functional read-out for many receptors and channels.
Sequence of Lysophosphatidic acid receptor 1 (Q92633 whole entry): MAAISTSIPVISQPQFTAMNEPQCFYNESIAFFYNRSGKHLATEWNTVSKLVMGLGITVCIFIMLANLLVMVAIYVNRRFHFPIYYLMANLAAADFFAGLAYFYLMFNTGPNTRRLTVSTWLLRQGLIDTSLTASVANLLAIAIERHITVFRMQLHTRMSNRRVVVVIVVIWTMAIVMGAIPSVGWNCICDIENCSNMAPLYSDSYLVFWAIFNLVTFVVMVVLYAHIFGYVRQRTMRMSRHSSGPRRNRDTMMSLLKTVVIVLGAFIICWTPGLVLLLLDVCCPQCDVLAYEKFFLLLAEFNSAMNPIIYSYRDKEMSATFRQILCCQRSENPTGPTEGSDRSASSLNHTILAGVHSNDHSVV

On to `O=C(O)c1ccc(Br)cc1S(=O)(=O)NCCCCN1C(=O)c2cccc3cccc(c23)C1=O`, for which a half-maximal effect in experiment [1] (EC50) was put at 50 nM. Further, the Emax (commonly the maximal effect, on the per cent scale that the assay sets) in experiment [2] was determined as 100%.

In the case of `O=C(O)c1cc(F)ccc1S(=O)(=O)NCCCCN1C(=O)c2cccc3cccc(c23)C1=O`, the midpoint of the response in experiment [1], the EC50, lay at 0.15 nM. In experiment [2], the Emax was 119%.

In experiment [2], `O=C(O)c1cc(Cl)ccc1S(=O)(=O)NCCCCN1C(=O)c2cccc3cccc(c23)C1=O` had an Emax of 124%.

Take `O=C(O)c1ccccc1S(=O)(=O)NCCCCN1C(=O)c2cccc3cccc(c23)C1=O`: the EC50 (usually the concentration at which the effect is half-maximal) in experiment [1] worked out at 110 nM. The compound also returned an Emax in experiment [2] of 100%.

As to `O=C(O)c1ccccc1SCCCN1C(=O)c2cccc3cccc(c23)C1=O`, the IC50 (commonly the midpoint of a concentration-inhibition curve) in experiment [3] turned out to be 6600 nM. The same compound came in with an Emax in experiment [2] of 75%.

On to `O=C(O)c1ccccc1S(=O)(=O)NCCCN1C(=O)c2cccc3cccc(c23)C1=O`, for which a half-maximal effect in experiment [1] (EC50) was put at 2160 nM.

As to `CCCCCCCC/C=C\CCCCCCCC(=O)OC[C@@H](O)COP(=O)(O)O` [LYSOPHOSPHATIDIC ACID], the response in experiment [4] was half-maximal at 350 nM (EC50).

In turn, `O=C(O)c1ccc2c(c1)S(=O)(=O)N(CCCCN1C(=O)c3cccc4cccc(c34)C1=O)C2=O` showed an Emax in experiment [2] of 100%.

In turn, `O=C(O)c1cc(Br)ccc1S(=O)(=O)NCCCCN1C(=O)c2cccc3cccc(c23)C1=O` returned an EC50 in experiment [1] of 60 nM. This compound came in with an Emax in experiment [2] of 104%.

In turn, `O=C(O)c1ccccc1S(=O)(=O)NCCCCCN1C(=O)c2cccc3cccc(c23)C1=O` registered an EC50 in experiment [1] of 1420 nM. Also, in experiment [2], the Emax came out at 100%.
